# Reference: patent publication US20060058312A1, “Stabilized aqueous preparation for injection” (priority 2004, published 2006)
# Read-outs that look alike come from different tables or passages of the source.
# Experiments:
# [1] = Change of pH value of the aqueous solution during storage; assay type: physicochemical; conditions: aqueous solution adjusted to pH 6 to 7
# [2] = Stability test at 60° C., addition amount of ascorbic acid at pH 8.1 (Example 4), HPLC content; assay type: physicochemical; conditions: for remaining calcium levofolinate content compared with the initial value (100): 60° C.
# Experimental: (§1) For the aqueous preparations obtained in (1) to (3) above, tests evaluating stability at 60° C./3 weeks were performed. The calcium levofolinate content remaining in the aqueous solution was measured using high performance liquid chromatography under the following conditions (the same were employed in the following experiments) 2 ml each of the test preparations were weighed, and 10 ml of the internal standard solution described below (the same was employed in the following experiments) were added thereto. Subsequently, water was added to adjust the total volume of the solution to 50 ml, thereby to prepare a test solution. Meanwhile, 62.5 mg of calcium levofolinate were dissolved in water so as to prepare a 25 ml solution. Then, to 10 ml of the resultant solution were added 10 ml of the internal standard solution, and the total volume of the solution was adjusted to 50 ml by adding water, thereby to prepare a standard solution. For 20 μl of the standard solution and the test solution, the content of calcium levofolinate was measured by the liquid chromatography method under the following conditions.
# (§2) 1) Measurement Conditions • Detector: Ultraviolet absorptiometer (Measurement wavelength: 254 nm) • Column: A stainless tube having an internal diameter of 4.0 mm and a length of 15 cm was filled with 5 μm of octadecylsilylated silica gel for liquid chromatography. • Column temperature: A constant temperature near 45° C. • Mobile phase: The pH value of a mixed test solution containing 0.008 mol/L of disodium hydrogen phosphate solution/methanol/40% aqueous tetrabutylammonium hydroxide solution (385:110:1.3 (volume ratio)) was adjusted to 7.5 by adding phosphoric acid. • Flow rate: The flow rate was regulated so that the retention time of calcium levofolinate became about 10 minutes. • Internal standard solution: A solution prepared by adding water to 0.04 g of methyl parahydroxybenzoate so that the whole amount of solution is 100 ml.
# About 80 ml of water for injection were added to a beaker (volume: 200 ml). Then 0.56 g of sodium chloride, 0.3 g of tromethamine, and 1.375 g of calcium levofolinate (1.1 g, in terms of 5-formyl-(6S)-tetrahydrofolic acid) were added to it with bubbling of nitrogen gas, and the components were dissolved with stirring (this procedure was performed […]). Subsequently, 0 (no addition), 0.05 g, 0.1 g, 0.3 g, 0.5 g or 1.0 g of ascorbic acid was added to each solution, and was dissolved with stirring, to prepare six solutions. Thereafter, in the case where the addition amount of ascorbic acid is 0 (no addition), 0.05 g, or 0.1 g, the pH value of each solution was adjusted to 8.1 by adding 5% hydrochloric acid dropwise. In the case where the addition amount of ascorbic acid is 0.3 g, 0.5 g, or 1.0 g, the pH value of each solution was adjusted to 8.1 by adding 1% aqueous sodium hydroxide solution dropwise. Water for injection was further added to each solution to adjust the total volume of the solution to 100 ml. Subsequently, the bubbling of nitrogen gas was stopped, and each solution was filtered with a filtration filter, thereby to yield a solution for injection. Subsequently, each of five 5 ml-glass ampules the inside space of which had been substituted by nitrogen gas, was filled with 5 ml of the resultant solution for injection, and it was sealed by heating.
# For each aqueous preparation obtained as above, a test evaluating stability at 60° C. was performed by measuring the remaining calcium levofolinate content by the high performance liquid chromatography method.
# [3] = assay type: physicochemical; conditions: buffer, 13 mg/mL, pH 6.2
# Experimental: as §1, §2
# About 1100 ml of water for injection were added to a beaker. Then, 8.04 g of sodium chloride, 3.6 g of tromethamine, 3.6 g of ascorbic acid, and 1.2 g of sodium pyrosulfite were added thereto with bubbling of nitrogen gas, and the components were dissolved with stirring. To the resultant solution were added 15.62 g of calcium levofolinate, which were dissolved with stirring. Thereafter, the pH value of the solution was adjusted to 6.2 by adding 5% hydrochloric acid solution dropwise. Water for injection was further added to the solution to adjust the total volume to 1200 ml. Subsequently, the bubbling of nitrogen gas was stopped, and the solution was filtered with a filtration filter, thereby to yield a solution for injection. A 5 ml-syringe made of polypropylene, the inside space of which had been substituted by nitrogen gas, was filled with 5 ml of the resultant solution for injection, followed by steam sterilization under high pressure at 105° C. for 30 minutes. The thus-sterilized syringe was packaged together with a deoxidant, AGELESS ZP-50 (trade name, Mitsubishi Gas Chemical Company, Inc. Japan) by using a plastic film with high air impermeability.
# For an aqueous preparation as obtained above, a stability test (60° C./75% RH, and 40° C./75% RH) was performed by measuring the content of calcium levofolinate remaining after storage for a certain period by the high performance liquid chromatography method.
smiles,measurement,setting,value
"Nc1nc(=O)c2c([nH]1)NC[C@H](CNc1ccc(C(=O)N[C@@H](CCC(=O)O)C(=O)O)cc1)N2C=O [calcium levofolinate, (6S)-N-[4-[[(2-amino-5-formyl-1,4,5,6,7,8-hexahydro-4-oxo-6-pteridinyl)methyl]amino]benzoyl]-L-glutamic acid]",change of pH value of the aqueous solution during storage,[1],gradually changes to an acid region
same,remaining calcium levofolinate content compared with the initial value (100),"[2]; ascorbic acid 0% (No addition), 1 month",79.7
same,remaining calcium levofolinate content compared with the initial value (100),"[2]; ascorbic acid 0% (No addition), 1 week",94.1
same,remaining calcium levofolinate content compared with the initial value (100),"[2]; ascorbic acid 0% (No addition), 2 weeks",88.7
same,remaining calcium levofolinate content compared with the initial value (100),"[2]; ascorbic acid 0% (No addition), 3 weeks",86.0
same,"calcium levofolinate content, Initial value (100)",[2]; ascorbic acid 0% (No addition),100
same,remaining calcium levofolinate content compared with the initial value (100),"[2]; ascorbic acid 0.05%, 1 month",82.6
same,remaining calcium levofolinate content compared with the initial value (100),"[2]; ascorbic acid 0.05%, 1 week",96.4
same,remaining calcium levofolinate content compared with the initial value (100),"[2]; ascorbic acid 0.05%, 2 weeks",92.4
same,remaining calcium levofolinate content compared with the initial value (100),"[2]; ascorbic acid 0.05%, 3 weeks",87.3
same,"calcium levofolinate content, Initial value (100)",[2]; ascorbic acid 0.05%,100
same,remaining calcium levofolinate content compared with the initial value (100),"[2]; ascorbic acid 0.1%, 1 month",82.2
same,remaining calcium levofolinate content compared with the initial value (100),"[2]; ascorbic acid 0.1%, 1 week",97.4
same,remaining calcium levofolinate content compared with the initial value (100),"[2]; ascorbic acid 0.1%, 2 weeks",93.1
same,remaining calcium levofolinate content compared with the initial value (100),"[2]; ascorbic acid 0.1%, 3 weeks",87.7
same,"calcium levofolinate content, Initial value (100)",[2]; ascorbic acid 0.1%,100
same,remaining calcium levofolinate content compared with the initial value (100),"[2]; ascorbic acid 0.3%, 1 month",81.6
same,remaining calcium levofolinate content compared with the initial value (100),"[2]; ascorbic acid 0.3%, 1 week",96.3
same,remaining calcium levofolinate content compared with the initial value (100),"[2]; ascorbic acid 0.3%, 2 weeks",91.3
same,remaining calcium levofolinate content compared with the initial value (100),"[2]; ascorbic acid 0.3%, 3 weeks",86.9
same,"calcium levofolinate content, Initial value (100)",[2]; ascorbic acid 0.3%,100
same,remaining calcium levofolinate content compared with the initial value (100),"[2]; ascorbic acid 0.5%, 1 month",80.9
same,remaining calcium levofolinate content compared with the initial value (100),"[2]; ascorbic acid 0.5%, 1 week",96.5
same,remaining calcium levofolinate content compared with the initial value (100),"[2]; ascorbic acid 0.5%, 2 weeks",90.9
same,remaining calcium levofolinate content compared with the initial value (100),"[2]; ascorbic acid 0.5%, 3 weeks",86.0
same,"calcium levofolinate content, Initial value (100)",[2]; ascorbic acid 0.5%,100
same,remaining calcium levofolinate content compared with the initial value (100),"[2]; ascorbic acid 1.0%, 1 month",80.3
same,remaining calcium levofolinate content compared with the initial value (100),"[2]; ascorbic acid 1.0%, 1 week",95.4
same,remaining calcium levofolinate content compared with the initial value (100),"[2]; ascorbic acid 1.0%, 2 weeks",89.8
same,remaining calcium levofolinate content compared with the initial value (100),"[2]; ascorbic acid 1.0%, 3 weeks",84.1
same,"calcium levofolinate content, Initial value (100)",[2]; ascorbic acid 1.0%,100
same,remaining ratio (%) of calcium levofolinate,[3]; 0 months,100%
same,remaining ratio (%) of calcium levofolinate,[3]; 0 weeks,100%
same,remaining ratio (%) of calcium levofolinate,[3]; 1 month,101.2%
same,remaining ratio (%) of calcium levofolinate,[3]; 2 months,100.2%
same,remaining ratio (%) of calcium levofolinate,[3]; 4 months,95.7%
same,remaining ratio (%) of calcium levofolinate,[3]; 6 months,92.8%
same,remaining ratio (%) of calcium levofolinate,[3]; 168 h,99.0%
same,remaining ratio (%) of calcium levofolinate,[3]; 336 h,97.5%
same,remaining ratio (%) of calcium levofolinate,[3]; 504 h,95.8%
same,remaining ratio (%) of calcium levofolinate,[3]; 672 h,94.3%
